Active and inactive are the calls of the source.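 The calls were made as follows: active = compounds giving half or more protection of infected cells from virus-caused growth loss, again on retest; inactive = the rest.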 Where a SMILES comes first, the peptide text is derived from it. Bridges are numbered along the chain shown (N, C = ends). Roman numbers before positions name the chains, in order. The star is where a group is joined. Cbz = O=C(OCc1ccccc1)*
Test system: CEM cells HIV-1 protection, formazan growth assay
Assay: NCI AIDS Antiviral Assay
Conditions: for IC50: measured here: growth of uninfected CEM cells
Procedure, shortened: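 Soluble formazan readout of cell growth; CEM cells ± HIV-1; 5 drug concs. ≥50% protection → retest; ≥50% again = moderately active; reproducible 100% = confirmed active.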

| Structure (SMILES) | EC50 [µM] | IC50 [µM] | outcome |
| --- | --- | --- | --- |
| CC(/C=N\NC(=S)N(C)C)=N/NC(=S)N(C)C | > 2 | 0.347 |  |
| COC(=O)c1ccccc1/C=C1\Cc2ccc(C)c(C)c2C1=O | > 200 | > 200 |  |
| O=C1[C@H]2ON(c3ccccc3)C(c3ccc([N+](=O)[O-])cc3)[C@H]2C(=O)N1c1ccc(Cc2ccc(N3C(=O)[C@@H]4ON(c5ccccc5)C(c5ccc([N+](=O)[O-])cc5)[C@@H]4C3=O)cc2)cc1 (stereo not given in full) | > 8.51 | > 8.51 |  |
| CCCCCCCCCCCCCCCCCC(=O)OC[C@H](COP(=O)(O)OCCNC(=O)CCC(=O)NCCC=C(c1cc(Cl)c(OC)c(C(=O)OC)c1)c1cc(Cl)c(OC)c(C(=O)OC)c1)OC(=O)CCCCCCCCCCCCCCCCC | > 50.1 | > 50.1 |  |
| NC(N)=NS(=O)(=O)c1ccc(NCCc2c3ccccc3nc3ccccc23)cc1 | > 200 | 66.1 |  |
| CN(C)P1(=O)NCC(C(C)(C)C)CO1 (stereo not given) | > 562 | > 562 |  |
| COC12C(COC(=O)NCCO)C3=C(C(=O)C(C)=C(N)C3=O)N1CC1NC12 (stereo not given) | > 331 | 1.15 |  |
| CCN(CC)c1ccc2cc(C(=O)Nc3cccc4ccccc34)c(=N)oc2c1 | > 200 | 12.6 |  |
| O=C1c2ccccc2C(=O)c2c1cc(S(=O)(=O)O)c(O)c2O |  |  | inactive |
| CCOC(=O)C1=C(C)/C(=C/c2[n-]c(C)c(C(=O)OCC)c2C)N=C1C.CCOC(=O)C1=C(C)/C(=C/c2[n-]c(C)c(C(=O)OCC)c2C)N=C1C.[Cu+2] | > 200 | > 200 |  |
| CCC(NC1=NCCO1)c1cccs1 (stereo not given) | > 200 | 79.4 |  |
| CCOC(=O)C(Cc1ccc(O)cc1)NC(=O)C(CSSCC(NC(=O)OCc1ccccc1)C(=O)NC(Cc1ccc(O)cc1)C(=O)OCC)NC(=O)OCc1ccccc1 (stereo not drawn) (I: Cbz-Cys-Tyr-OEt / II: Cbz-Cys-Tyr-OEt; disulfide I:1-II:1; configuration not given here) | > 100 | 15.5 |  |
| COc1cc2c(-c3onc4ccc(OCc5ccccc5)cc34)nccc2c(OC)c1OC |  |  | inactive |
| CC(=O)[C@]1(O)Cc2c(O)c3c(c(O)c2[C@@H](OC2CC(N)C(O)C(C)O2)C1)C(=O)c1c(OCc2ccccc2)cccc1C3=O (stereo not given in full) |  |  | inactive |
| NC(N)=NNC(=O)CCCCCCCC(=O)NN=C(N)N | 537 | 676 |  |
| CCOC(=O)C(=[N+]=[N-])C(=O)C[N+]12CCN(CC1)CC2 | > 200 | > 200 |  |
| CCOC(=O)c1nc2ccc(C(F)(F)F)cc2[nH]c1=O | > 200 | > 200 |  |
| CCOC(=O)/C(=C\c1ccc(CO)o1)P(=O)(OCC)OCC | > 200 | 30.9 |  |
| CCN(CC)CCCC(C)Nc1cc(C)nc2c1ccc1c2ccc2c(NC(C)CCCN(CC)CC)cc(C)nc21 (stereo not given) | > 66.1 | 3.98 |  |
| O=C1c2ccccc2C2(c3ccc(F)cc3)NCCN12 (stereo not given) | > 200 | 186 |  |

| Structure (SMILES) | EC50 [µM] | IC50 [µM] | outcome |
| --- | --- | --- | --- |
| COc1ccc(NC(=S)N/N=C/c2cccc(C)n2)cc1 | > 200 | 4.9 |  |
| O=c1c(-c2ccc(O)c(O)c2)coc2cc(O)cc(O)c12 | > 200 | 15.8 |  |
| CCOC(=O)c1nc2ccccc2nc1Oc1cc(OC)cc(OC)c1 | > 200 | > 200 |  |
| OC1(c2cccnc2)c2ccccc2Oc2ccccc21 | > 200 | 79.4 |  |
| O=C1NC(=O)C(C(=O)C(=O)Nc2cc(Cl)ccc2Cl)C(=O)N1 | > 380 | 302 |  |
| CC(CCC/C=C/CCCN(C)C(=N)N)CC(C)C1OC(=O)C(C)C(O)/C=C/C(C)C(O)C(C)C(O)C(C)C(O)CCCC(O)CC2(O)OC(CC(OC(=O)CC(=O)O)CC(O)CC(O)C(C)C(O)/C=C/C=C/C1C)CC(O)C2O (stereo not given) |  |  | inactive |
| c1ccc(N2N=NC3C4CCC(C4)C32)cc1 (stereo not given) | > 200 | > 200 |  |
| O=C(CCCN1CCC2(CC1)OC(=O)N(c1ccccc1)C2=O)c1ccccc1 | > 200 | > 200 |  |
| CC1=C2c3ccccc3N(C(=O)/C=C/C(=O)O)[C@H]2[C@H]2C(=O)OC(=O)[C@H]2C1 | > 200 | 151 |  |
| Cc1[nH]nc(-c2ccon2)c1N=O | > 200 | 8.91 |  |
| Sc1nc2ccccc2s1.Sc1nc2ccccc2s1.Sc1nc2ccccc2s1.Sc1nc2ccccc2s1.[Cl][Rh][Cl] | > 151 | 2.95 |  |
| CCC(=S)N(C)O | > 20.9 | 0.174 |  |
| NC(=O)C(=CNc1nc(-c2ccc(Br)cc2)cs1)C(N)=O | > 200 | 135 |  |
| CCCCCCCC1(N=[N+]=[N-])C(=O)Nc2ccccc2C1=O (stereo not given) | > 200 | 20 |  |
| C=C[C@@H]1c2ccccc2C=C[C@]1(CCC1(C)OCCO1)C1=NC(C)(C)CO1 | > 70.8 | > 70.8 |  |
| COC1OC(CS)C(N)C1OS(C)(=O)=O (stereo not given) | > 200 | 155 |  |
| CC1(C)COC(c2cccnc2/C=N/O)=N1 | > 1150 | > 200 |  |
| CC1CC(=O)C(CC(=O)O)C1C(C(=O)C(=O)Nc1c(C#N)cccc1[N+](=O)[O-])[N+](=O)[O-] (stereo not given) |  |  | inactive |
| COC(=O)C1CC2c3[nH]c4ccccc4c3CCN2C1 (stereo not given) | > 275 | > 275 |  |
| Cc1cc2c(c3c1c1ccccc1n3C)C(=O)c1ccccc1C2=O | > 1.7 | > 1.7 |  |

Source: PubChem BioAssay AID179 (DTP/NCI, 2004)
